Measured values: US9657046B2, “Methods for the treatment and prevention of inflammatory diseases” (Children's Medical Center Corporation, priority 2010, dated 2017)

Columns and labels:
[1] = tested on: BALB/c mice; assay: OVA-induced AHR in adult mice treated with glycolipid at 2 weeks of age; type: in vivo, mouse; details: 2 wk old mice treated i.p. (α-C-GalCer 5 μg, α-GalCer 2 μg, PI57 50 or 100 μg, PBS30 50 μg); AHR induced 6 wks (42 days) later
Method: In FIGS. 6A-6B, two-week-old BALB/c mice (n=6-8/group) (6A) or Tbet^−/− mice (6B) (n=4-6 per group) received 5 μg […] (cGal), 2 μg α-GalCer, or vehicle. After OVA sensitization and challenge, AHR was measured on day 44. In FIG. 6C, donor mice were treated with α-C-GalCer (5 μg) or vehicle i.p. NKT cells served as donors, as in FIG. 4A (n=4 per group). Lung resistance (left) and cell counts in BAL (right) were assessed. […] In FIG. 6E, mice received PI57 (50 μg), α-GalCer (2 μg), or vehicle i.p., and lungs were examined 1 or 14 days later for CD4 and CD8 expression. In FIG. 6F, absolute numbers of CD4^+ NKT and DN NKT subsets from 6E were assessed. In FIG. 6G, BALB/c mice (n=5-8/group) received PI57 or vehicle i.p. Lung resistance (left) and BAL cells (right) were assessed. In FIG. 6H, BALB/c mice treated with PI57 (50 μg), PBS30 (Sphingomonas glycolipid) (50 μg), or vehicle i.p. were assessed for AHR as in 6G. In FIG. 6I, donor mice were treated with PI57 (50 μg) or vehicle i.p. NKT cells served as donors as in FIG. 4A. Lung resistance (left) and BAL cells (right) were assessed (n=4 per group). […] Data represent 2-3 independent experiments. *P<0.05, #P<0.05, ***P<0.001 versus vehicle-OVA (6C, 6G, and 6I), DN NKT saline (6F), and CD4^+ NKT saline (6F).
Induction of AHR and measurement of airway responsiveness in the OVA model.
To induce AHR, BALB/c mice were sensitized with 100 μg of OVA (Sigma-Aldrich) in alum administered i.p (on day 0). After sensitization, mice were exposed to intranasal antigen (50 μg OVA/day) or normal saline for 1 day (day 7; single dose challenge protocol), or for 3 consecutive days (days 7, 8, 9). AHR was assessed on the day after last OVA-challenge. Control mice received i.p. injection of PBS and intranasal administrations of normal saline.

[2] = tested on: OVA-sensitized BALB/c mice; assay: Adoptive transfer of NKT cells from glycolipid-treated mice into OVA-sensitized BALB/c recipients (AHR, BAL); type: in vivo, mouse; details: OVA-sensitized WT recipients; for AHR in recipients of NKT cells from glycolipid-treated donors: donors treated i.p. at 2 wk (α-C-GalCer 5 μg, PI57 50 μg, or α-GalCer), NKT cells harvested 6 wks later
[3] = tested on: pulmonary NKT cells; assay: Lung NKT cell subsets (CD4+, DN) by FACS after i.p. glycolipid in 2 week-old mice; type: in vivo, mouse; details: i.p. PI57 50 μg or α-GalCer 2 μg, lung 2 wks later
Method: In FIGS. 6A-6B, two-week-old BALB/c mice (n=6-8/group) (6A) or Tbet^−/− mice (6B) (n=4-6 per group) received 5 μg […] (cGal), 2 μg α-GalCer, or vehicle. After OVA sensitization and challenge, AHR was measured on day 44. In FIG. 6C, donor mice were treated with α-C-GalCer (5 μg) or vehicle i.p. NKT cells served as donors, as in FIG. 4A (n=4 per group). Lung resistance (left) and cell counts in BAL (right) were assessed. […] In FIG. 6E, mice received PI57 (50 μg), α-GalCer (2 μg), or vehicle i.p., and lungs were examined 1 or 14 days later for CD4 and CD8 expression. In FIG. 6F, absolute numbers of CD4^+ NKT and DN NKT subsets from 6E were assessed. In FIG. 6G, BALB/c mice (n=5-8/group) received PI57 or vehicle i.p. Lung resistance (left) and BAL cells (right) were assessed. In FIG. 6H, BALB/c mice treated with PI57 (50 μg), PBS30 (Sphingomonas glycolipid) (50 μg), or vehicle i.p. were assessed for AHR as in 6G. In FIG. 6I, donor mice were treated with PI57 (50 μg) or vehicle i.p. NKT cells served as donors as in FIG. 4A. Lung resistance (left) and BAL cells (right) were assessed (n=4 per group). […]
Cells were preincubated with anti-Fey blocking mAb (2.4G2) and washed before staining. […] Cells were analyzed on a BDCanto flow cytometer (BD Biosciences) using FlowJo 8.3.3 software (Tree Star, Inc.).

[4] = tested on: NKT cells; details: cited from earlier work

CCCCCCCCCCCCCCCCCCCCCCCCCC(=O)N[C@@H](CO[C@H]1O[C@H](CO)[C@H](O)[C@H](O)[C@H]1O)[C@H](O)[C@H](O)CCCCCCCCCCCCCC [α-GalCer, α-Galactosylceramide]
protection against development of OVA-induced AHR (lung resistance) [1]: did not prevent OVA induced AHR | AHR in recipients of NKT cells from glycolipid-treated donors [2]: reduced AHR slightly, but this was not statistically significant | number of NKT cells (CD4+ and DN subsets) in the lung [3]: increased both CD4^+ and DN NKT cells in the lungs | cytokine synthesis induced (IFN-γ, IL-4) [4]: induces production of both IFN-γ and IL-4

CCCCCCCCCCCCCCCCCCCCCCCCCC(=O)N[C@@H](CC[C@H]1OC(CO)[C@H](O)C(O)C1O)[C@H](O)[C@H](O)CCCCCCCCCCCCCC (stereo partly drawn) [α-C-GalCer, α-C-Galactosylceramide]
protection against development of OVA-induced AHR (lung resistance) [1]: protected the mice as adults (42 days later) from the development of OVA-induced AHR | airway inflammation (BAL cells, lung sections) in recipients of NKT cells from glycolipid-treated donors ([2]; donors treated i.p. at 2 wk (α-C-GalCer 5 μg, PI57 50 μg)): protected recipients against the development of AHR and airway inflammation | AHR in recipients of NKT cells from glycolipid-treated donors [2]: protected recipients against the development of AHR | cytokine synthesis induced (IFN-γ, IL-4) [4]: preferentially induces IFN-γ but not IL-4 synthesis
